Columns and labels:
[1] = biological target: T1, Alpha-1B adrenergic receptor (Homo sapiens, UniProt P35368)
T1 sequence (P35368 whole entry): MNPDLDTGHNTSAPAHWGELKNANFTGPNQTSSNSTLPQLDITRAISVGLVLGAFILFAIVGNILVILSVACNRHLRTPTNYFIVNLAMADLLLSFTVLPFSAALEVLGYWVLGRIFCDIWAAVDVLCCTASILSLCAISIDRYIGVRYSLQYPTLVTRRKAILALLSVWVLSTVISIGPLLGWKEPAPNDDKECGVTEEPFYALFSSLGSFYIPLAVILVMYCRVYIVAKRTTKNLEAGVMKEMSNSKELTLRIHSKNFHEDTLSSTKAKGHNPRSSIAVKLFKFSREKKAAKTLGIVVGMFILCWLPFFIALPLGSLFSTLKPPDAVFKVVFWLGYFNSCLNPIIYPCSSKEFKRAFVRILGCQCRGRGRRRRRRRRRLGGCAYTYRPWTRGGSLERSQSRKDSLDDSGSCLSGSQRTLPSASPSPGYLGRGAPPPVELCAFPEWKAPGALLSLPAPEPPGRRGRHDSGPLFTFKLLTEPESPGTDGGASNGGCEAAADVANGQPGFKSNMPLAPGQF

[2] = biological target: Muscarinic acetylcholine receptor M3 (Homo sapiens, UniProt P20309)
Chain of Muscarinic acetylcholine receptor M3 (P20309 whole entry): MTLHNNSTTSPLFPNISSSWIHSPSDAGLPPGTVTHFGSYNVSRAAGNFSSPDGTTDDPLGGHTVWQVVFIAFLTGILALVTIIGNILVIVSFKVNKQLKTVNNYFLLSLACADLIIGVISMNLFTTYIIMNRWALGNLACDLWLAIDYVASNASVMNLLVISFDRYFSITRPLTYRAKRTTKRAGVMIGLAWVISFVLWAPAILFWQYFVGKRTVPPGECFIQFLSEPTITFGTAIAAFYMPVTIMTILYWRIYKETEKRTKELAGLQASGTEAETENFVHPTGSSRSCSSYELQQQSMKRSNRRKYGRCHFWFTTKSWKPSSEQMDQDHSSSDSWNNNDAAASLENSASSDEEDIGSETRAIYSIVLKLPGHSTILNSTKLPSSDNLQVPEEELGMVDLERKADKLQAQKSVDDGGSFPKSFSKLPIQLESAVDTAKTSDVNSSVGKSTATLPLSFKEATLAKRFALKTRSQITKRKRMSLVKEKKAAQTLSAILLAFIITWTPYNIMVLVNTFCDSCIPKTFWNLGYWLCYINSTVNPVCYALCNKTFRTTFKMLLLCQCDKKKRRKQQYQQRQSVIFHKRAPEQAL

[3] = biological target: 5-hydroxytryptamine receptor 6 (Homo sapiens, UniProt P50406)
Chain of 5-hydroxytryptamine receptor 6 (P50406 whole entry): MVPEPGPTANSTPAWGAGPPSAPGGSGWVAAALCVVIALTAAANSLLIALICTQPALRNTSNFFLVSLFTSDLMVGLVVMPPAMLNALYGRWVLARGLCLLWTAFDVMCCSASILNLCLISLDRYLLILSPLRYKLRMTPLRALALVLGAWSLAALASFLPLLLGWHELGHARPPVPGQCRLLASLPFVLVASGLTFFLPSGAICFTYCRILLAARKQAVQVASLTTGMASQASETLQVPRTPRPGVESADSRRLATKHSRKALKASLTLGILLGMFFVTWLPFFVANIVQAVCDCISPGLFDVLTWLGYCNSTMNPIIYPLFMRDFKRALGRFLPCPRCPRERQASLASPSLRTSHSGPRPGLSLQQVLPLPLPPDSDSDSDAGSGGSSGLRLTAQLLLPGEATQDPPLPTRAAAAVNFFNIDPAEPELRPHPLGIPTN

[4] = biological target: Gamma-aminobutyric acid receptor subunit alpha-1 (Rattus norvegicus, UniProt P62813)
Chain of Gamma-aminobutyric acid receptor subunit alpha-1 (P62813 whole entry): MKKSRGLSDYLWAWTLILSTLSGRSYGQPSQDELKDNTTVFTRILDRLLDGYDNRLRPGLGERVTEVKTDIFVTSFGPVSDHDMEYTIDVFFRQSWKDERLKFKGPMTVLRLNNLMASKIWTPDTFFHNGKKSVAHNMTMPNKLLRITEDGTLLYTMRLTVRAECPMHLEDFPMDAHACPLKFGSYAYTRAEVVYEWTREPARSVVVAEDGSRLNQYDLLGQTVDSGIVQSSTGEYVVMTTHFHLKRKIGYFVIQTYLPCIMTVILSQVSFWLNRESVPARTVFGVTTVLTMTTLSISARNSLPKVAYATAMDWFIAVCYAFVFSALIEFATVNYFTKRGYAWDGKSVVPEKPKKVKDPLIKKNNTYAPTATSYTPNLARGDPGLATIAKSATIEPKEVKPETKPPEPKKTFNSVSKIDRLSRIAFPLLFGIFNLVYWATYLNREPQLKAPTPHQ

[5] = biological target: T2, Muscarinic acetylcholine receptor M5 (Homo sapiens, UniProt P08912)
T2 sequence (P08912 whole entry): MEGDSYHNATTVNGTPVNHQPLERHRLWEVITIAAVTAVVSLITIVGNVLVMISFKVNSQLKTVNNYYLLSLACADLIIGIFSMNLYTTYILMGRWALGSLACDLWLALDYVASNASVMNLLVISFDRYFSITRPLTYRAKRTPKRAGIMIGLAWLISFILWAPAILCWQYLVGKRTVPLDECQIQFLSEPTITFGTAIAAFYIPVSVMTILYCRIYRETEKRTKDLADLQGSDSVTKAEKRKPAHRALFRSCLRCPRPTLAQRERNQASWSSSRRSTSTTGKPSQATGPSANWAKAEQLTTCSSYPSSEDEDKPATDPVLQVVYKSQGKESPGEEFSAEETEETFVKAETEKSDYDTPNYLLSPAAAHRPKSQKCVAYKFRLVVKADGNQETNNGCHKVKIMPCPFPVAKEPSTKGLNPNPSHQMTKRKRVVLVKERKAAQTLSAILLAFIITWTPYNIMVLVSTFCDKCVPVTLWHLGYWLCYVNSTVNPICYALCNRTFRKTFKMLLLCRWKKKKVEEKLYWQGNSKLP

[6] = biological target: Sodium-dependent dopamine transporter (Homo sapiens, UniProt Q01959)
Chain of Sodium-dependent dopamine transporter (Q01959 whole entry): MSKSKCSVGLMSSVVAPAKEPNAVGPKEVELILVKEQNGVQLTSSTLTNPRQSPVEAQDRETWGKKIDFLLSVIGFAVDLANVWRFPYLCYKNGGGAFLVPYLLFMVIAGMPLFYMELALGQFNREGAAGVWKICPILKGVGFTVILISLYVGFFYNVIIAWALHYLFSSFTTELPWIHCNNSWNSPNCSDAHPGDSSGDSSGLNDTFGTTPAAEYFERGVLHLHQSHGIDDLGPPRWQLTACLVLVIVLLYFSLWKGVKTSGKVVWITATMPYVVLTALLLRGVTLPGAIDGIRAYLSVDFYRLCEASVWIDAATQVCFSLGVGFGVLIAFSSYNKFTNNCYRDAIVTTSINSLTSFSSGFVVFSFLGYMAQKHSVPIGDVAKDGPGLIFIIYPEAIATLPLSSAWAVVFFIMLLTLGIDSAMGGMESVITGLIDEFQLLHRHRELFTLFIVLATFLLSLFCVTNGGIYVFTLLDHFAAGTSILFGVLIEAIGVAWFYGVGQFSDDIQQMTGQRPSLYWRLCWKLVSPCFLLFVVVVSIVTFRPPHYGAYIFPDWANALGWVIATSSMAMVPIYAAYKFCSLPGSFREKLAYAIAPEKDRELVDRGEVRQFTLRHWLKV

[7] = biological target: T3, Muscarinic acetylcholine receptor M2 (Homo sapiens, UniProt P08172)
T3 sequence (P08172 whole entry): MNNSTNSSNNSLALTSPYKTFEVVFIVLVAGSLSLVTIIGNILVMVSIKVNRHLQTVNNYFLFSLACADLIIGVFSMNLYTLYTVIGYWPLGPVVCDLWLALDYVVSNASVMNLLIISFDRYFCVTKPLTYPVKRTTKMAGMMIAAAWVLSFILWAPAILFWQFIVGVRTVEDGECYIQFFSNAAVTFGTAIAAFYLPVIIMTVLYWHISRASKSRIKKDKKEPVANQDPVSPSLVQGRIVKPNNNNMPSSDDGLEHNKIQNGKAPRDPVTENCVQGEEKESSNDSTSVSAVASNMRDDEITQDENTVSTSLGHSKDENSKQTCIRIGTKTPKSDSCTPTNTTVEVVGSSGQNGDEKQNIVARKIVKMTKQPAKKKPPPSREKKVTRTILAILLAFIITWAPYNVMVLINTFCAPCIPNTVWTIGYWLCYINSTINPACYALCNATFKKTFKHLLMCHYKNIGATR

[8] = biological target: 5-hydroxytryptamine receptor 5A (Homo sapiens, UniProt P47898)
Chain of 5-hydroxytryptamine receptor 5A (P47898 whole entry): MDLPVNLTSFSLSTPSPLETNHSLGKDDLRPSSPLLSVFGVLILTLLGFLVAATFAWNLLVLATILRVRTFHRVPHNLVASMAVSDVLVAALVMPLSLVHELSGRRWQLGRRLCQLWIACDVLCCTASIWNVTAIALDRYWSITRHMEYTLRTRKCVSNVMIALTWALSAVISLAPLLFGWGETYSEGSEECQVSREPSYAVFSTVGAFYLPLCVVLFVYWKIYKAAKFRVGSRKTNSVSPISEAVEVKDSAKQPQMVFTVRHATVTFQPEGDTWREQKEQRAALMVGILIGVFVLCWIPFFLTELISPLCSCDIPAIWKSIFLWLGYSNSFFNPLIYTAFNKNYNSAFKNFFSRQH

[9] = biological target: T4, 5-hydroxytryptamine receptor 3A (Homo sapiens, UniProt P46098)
T4 sequence (P46098 whole entry): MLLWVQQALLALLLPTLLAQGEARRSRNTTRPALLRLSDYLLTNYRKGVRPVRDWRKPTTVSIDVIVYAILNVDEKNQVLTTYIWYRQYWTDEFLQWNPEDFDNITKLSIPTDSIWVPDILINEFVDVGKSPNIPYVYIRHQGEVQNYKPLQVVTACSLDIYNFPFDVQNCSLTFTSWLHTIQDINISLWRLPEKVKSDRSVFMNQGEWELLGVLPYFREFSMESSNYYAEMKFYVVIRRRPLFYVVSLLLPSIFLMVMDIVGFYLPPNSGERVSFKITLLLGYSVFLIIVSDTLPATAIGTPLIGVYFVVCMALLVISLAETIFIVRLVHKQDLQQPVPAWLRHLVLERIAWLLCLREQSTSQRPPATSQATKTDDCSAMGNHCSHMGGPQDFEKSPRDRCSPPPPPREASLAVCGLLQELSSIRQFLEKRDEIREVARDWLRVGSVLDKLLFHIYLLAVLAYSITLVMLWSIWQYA

[10] = biological target: T5, D(4) dopamine receptor (Rattus norvegicus, UniProt P30729)
T5 sequence (P30729 whole entry): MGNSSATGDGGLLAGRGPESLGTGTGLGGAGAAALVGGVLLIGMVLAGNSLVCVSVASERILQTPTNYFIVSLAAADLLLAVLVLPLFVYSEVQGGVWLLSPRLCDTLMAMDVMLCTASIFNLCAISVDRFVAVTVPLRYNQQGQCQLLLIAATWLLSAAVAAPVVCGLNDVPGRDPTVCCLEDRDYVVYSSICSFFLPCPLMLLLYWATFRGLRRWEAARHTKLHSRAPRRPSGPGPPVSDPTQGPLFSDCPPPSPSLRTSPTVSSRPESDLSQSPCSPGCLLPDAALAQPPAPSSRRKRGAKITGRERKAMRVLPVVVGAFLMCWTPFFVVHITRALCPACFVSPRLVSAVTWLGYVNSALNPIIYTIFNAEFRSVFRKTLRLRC

| Compound | Ki [1] [µM] | Ki [2] [µM] | Ki [3] [µM] | Ki [4] [µM] | Ki [5] [µM] | Ki [6] [µM] | Ki [7] [µM] | Ki [8] [µM] | Ki [9] [µM] | Ki [10] [µM] |
| --- | --- | --- | --- | --- | --- | --- | --- | --- | --- | --- |
| N[C@H](CS(=O)(=O)O)C(=O)O [L-cysteic acid] | > 10 | > 10 | > 10 | > 10 | > 10 | > 10 | > 10 | > 10 | > 10 | > 10 |
| NC(CSSCC(N)C(=O)O)C(=O)O (stereo not given) [CAS_595] | > 10 | > 10 | > 10 | > 10 | > 10 | > 10 | > 10 | > 10 | > 10 | > 10 |
| N[C@H]1CCSC1=O [NSC_134505] | > 10 | > 10 | > 10 | > 10 | > 10 | > 10 | > 10 | > 10 | > 10 | > 10 |
| CSCC[C@@H](N)C(=O)O [CAS_6137] | > 10 | > 10 | > 10 | > 10 | > 10 | > 10 | > 10 | > 10 | > 10 | > 10 |
| N[C@@H](CCS(=O)O)C(=O)O [L-homocysteine sulfinic acid] | > 10 | > 10 | > 10 | > 10 | > 10 | > 10 | > 10 | > 10 | > 10 | > 10 |
| N[C@@H]1CCSC1=O [D-homocysteine thiolactone] | > 10 | > 10 | > 10 | > 10 | > 10 | > 10 | > 10 | > 10 | > 10 | > 10 |
| N[C@@H](CCS(=O)(=O)O)C(=O)O (racemic) | > 10 | > 10 | > 10 | > 10 | > 10 | > 10 | > 10 | > 10 | > 10 | > 10 |

Next, values leading:

| Ki [1] [µM] | Ki [2] [µM] | Ki [3] [µM] | Ki [4] [µM] | Ki [5] [µM] | Ki [6] [µM] | Ki [7] [µM] | Ki [8] [µM] | Ki [9] [µM] | Ki [10] [µM] | Compound |
| --- | --- | --- | --- | --- | --- | --- | --- | --- | --- | --- |
| > 10 | > 10 | > 10 | > 10 | > 10 | > 10 | > 10 | > 10 | > 10 | > 10 | N[C@@H](CCS)C(=O)O (racemic) [CAS_778] |
| > 10 | > 10 | > 10 | > 10 | > 10 | > 10 | > 10 | > 10 | > 10 | > 10 | N[C@H](CCS(=O)(=O)O)C(=O)O [D-homocysteic acid] |
| > 10 | > 10 | > 10 | > 10 | > 10 | > 10 | > 10 | > 10 | > 10 | > 10 | NC(CS(=O)O)C(=O)O (stereo not given) [CAS_109] |
| > 10 | > 10 | > 10 | > 10 | > 10 | > 10 | > 10 | > 10 | > 10 | > 10 | N[C@H](CCS(=O)O)C(=O)O [D-homocysteine sulfinic acid] |
| > 10 | > 10 | > 10 | > 10 | > 10 | > 10 | > 10 | > 10 | > 10 | > 10 | N[C@@H](CS)C(=O)O [CAS_5862] |
